Laboratory results from the supplement of paper PMC8882468.

How the values were obtained:
Assay in all cases: CTG-3D luminescence at 96 h relative to day-0 seeding control (ratio to day 0); higher = more growth / less cytotoxicity; PDxO 3D drug screen, 96 h, CTG-3D normalised to day-0 seeding control.
HCI-023 = tested on: HCI-023 (organoid from a triple-negative breast cancer xenograft)
HCI-008 = tested on: HCI-008 (organoid from a HER2-enriched breast cancer xenograft)
HCI-025 = tested on: HCI-025 (organoid from a breast cancer xenograft)
HCI-011.E2 = tested on: HCI-011.E2 (organoid from an ER-positive breast cancer xenograft)
HCI-010 = tested on: HCI-010 (organoid from a breast cancer xenograft)
HCI-027 = tested on: HCI-027 (organoid from a triple-negative breast cancer xenograft)

COc1cc2c(Oc3ccc4[nH]c(C)cc4c3F)ncnc2cc1OCCCN1CCCC1 [cediranib]
CTG-3D luminescence at 96 h
Conditions	12.5 pM	0.00025 µM	0.005 µM	0.1 µM	1 µM	10 µM	100 µM	625 fM
HCI-008, days in culture: 228	1.83	1.99	1.53	2.02	1.69	-0.102	-0.136	1.51
HCI-008, days in culture: 244	1.25	1.7	1.65	2.04	1.62	0.0639	-0.000797	1.95
HCI-010, days in culture: 52	1.94	2.48	2.23	2.46	2.24	0.221	-0.0298	2.13
HCI-010, days in culture: 65	1.55	1.65	1.76	1.77	1.42	0.593	-0.00161	1.63
HCI-010, days in culture: 103	3.58	3.43	3.17	3.43	2.66	0.461	-0.00732	3.19
HCI-011.E2, days in culture: 74	2.32	2.91	2.13	2.41	2.47	2.28	0.0101	2.38
HCI-023, days in culture: 111	1.46	1.23	1.27	1.19	0.911	0.0116	-0.00068	1.41
HCI-023, days in culture: 128	1.2	1.51	1.06	1.52	0.96	0.0129	-0.00109	1.48
HCI-025, days in culture: 172	2.66	1.84	3.42	1.99	2.79	0.0165	-0.00438	2.12
HCI-025, days in culture: 209	1.77	1.18	1.76	1.47	2.18	0.022	-0.00409	1.31
HCI-025, days in culture: 218	1.52	1.84	2.1	1.73	1.5	0.0433	-0.00599	1.86
HCI-027, days in culture: 176	1.99	1.2	2.24	1.46	2.56	0.0266	-0.00276	1.66
HCI-027, days in culture: 194	1.76	1.48	1.39	1.94	2.13	0.0281	-0.00212	1.47
HCI-027, days in culture: 201	2.17	1.9	1.78	1.87	2.39	0.0302	-0.000884	1.9

HCI-011.E2
Conditions	CTG-3D luminescence at 96 h
12.5 pM	1.53
0.00025 µM	1.52
0.005 µM	1.45
0.1 µM	2.05
1 µM	1.65
10 µM	1.44
100 µM	0.0243
625 fM	1.97

C[C@@H]1COCCN1c1cc(C2([S@](C)(=N)=O)CC2)nc(-c2cc[nH]c3nccc2-3)n1 [ceralasertib]
CTG-3D luminescence at 96 h
Conditions	12.5 pM	0.00025 µM	0.005 µM	0.1 µM	1 µM	10 µM	100 µM	625 fM
HCI-008, days in culture: 228	1.99	1.95	1.41	1.81	1.36	0.531	0.212	1.72
HCI-008, days in culture: 244	1.32	2.13	2.05	2.01	1.26	0.71	0.334	2.35
HCI-010, days in culture: 52	2.13	2.39	2.26	2.04	0.835	0.422	0.238	2.24
HCI-010, days in culture: 65	1.69	1.62	1.85	1.57	0.693	0.3	0.152	1.65
HCI-010, days in culture: 103	3.6	3.3	3.45	3	1.49	0.548	0.325	3.14
HCI-011.E2, days in culture: 74	2.18	2.33	1.97	1.85	1.53	0.982	0.237	1.86
HCI-023, days in culture: 111	1.26	1.25	0.897	1.31	0.756	0.365	0.252	1.5
HCI-023, days in culture: 128	1.69	1.4	1.37	1.51	0.689	0.634	0.38	1.35
HCI-025, days in culture: 172	2.29	1.93	3.61	2.46	1.59	0.359	0.297	1.92
HCI-025, days in culture: 209	1.3	1.6	1.64	1	0.856	0.386	0.184	1.38
HCI-025, days in culture: 218	1.86	1.85	2.07	1.64	0.97	0.482	0.269	1.88
HCI-027, days in culture: 176	2	1.26	2.33	1.47	0.682	0.114	0.29	2.06
HCI-027, days in culture: 194	1.7	1.54	1.32	1.62	0.748	0.111	0.232	1.56
HCI-027, days in culture: 201	1.78	1.98	1.99	2.1	0.726	0.134	0.279	1.54

HCI-011.E2
Conditions	CTG-3D luminescence at 96 h
12.5 pM	1.56
0.00025 µM	1.76
0.005 µM	1.56
0.1 µM	1.78
1 µM	1.42
10 µM	1.02
100 µM	0.326
625 fM	1.89

Cc1cc(Nc2ncc(Cl)c(Nc3ccccc3S(=O)(=O)C(C)C)n2)c(OC(C)C)cc1C1CCNCC1 [ceritinib]
CTG-3D luminescence at 96 h
Conditions	12.5 pM	0.00025 µM	0.005 µM	0.1 µM	1 µM	10 µM	100 µM	625 fM
HCI-008, days in culture: 228	1.69	1.81	1.55	1.3	1.15	-0.138	-0.142	1.59
HCI-008, days in culture: 244	1.42	1.74	1.85	1.55	1.47	0.0065	-0.00443	2.17
HCI-010, days in culture: 52	2.34	2.15	2.46	2.54	2.64	-0.0117	-0.0342	2.26
HCI-010, days in culture: 65	1.61	1.61	1.79	1.94	1.83	0.00782	-0.00536	1.74
HCI-010, days in culture: 103	3.59	3.48	3.35	3.68	3.99	0.0149	-0.0118	3.09
HCI-011.E2, days in culture: 74	1.46	1.59	1.77	2.11	1.4	0.0662	-0.00371	1.72
HCI-023, days in culture: 111	1.47	1.19	1.18	1.12	0.844	0.00455	-0.00268	1.19
HCI-023, days in culture: 128	1.39	1.2	1.17	1.65	0.92736	0.00417	-0.00332	1.65
HCI-025, days in culture: 172	2.83	2.05	3.23	2.01	2.79	0.00721	-0.00729	2.37
HCI-025, days in culture: 209	1.92	1.29	1.23	1.33	1.33	0.628	-0.00366	1.68
HCI-025, days in culture: 218	2.02	1.87	1.86	1.8	1.36	1.48	-0.00328	2.18
HCI-027, days in culture: 176	2.26	1.27	2.21	1.68	1.81	0.00647	-0.00642	2.34
HCI-027, days in culture: 194	1.42	1.26	1.1	1.96	1.8	0.0105	-0.00633	1.39
HCI-027, days in culture: 201	2.21	1.72	1.65	1.66	1.47	0.0089	-0.00463	1.31

HCI-011.E2
Conditions	CTG-3D luminescence at 96 h
12.5 pM	1.68
0.00025 µM	1.409
0.005 µM	1.37
0.1 µM	1.85
1 µM	1.4
10 µM	0.353
100 µM	-0.00338
625 fM	1.92

O=C(c1ccc(F)c(F)c1Nc1ccc(I)cc1F)N1CC(O)([C@@H]2CCCCN2)C1 [cobimetinib]
CTG-3D luminescence at 96 h
Conditions	12.5 pM	0.00025 µM	0.005 µM	0.1 µM	1 µM	10 µM	100 µM	625 fM
HCI-008, days in culture: 228	1.65	1.7	1.33	1.14	1.11	1	-0.00126	1.7
HCI-008, days in culture: 244	1.27	1.9	1.87	1.57	1.1	1.08	0.000182	2.25
HCI-010, days in culture: 52	2.3	2.56	2.39	2.62	2.15	1.67	0.00712	2.57
HCI-010, days in culture: 65	1.64	1.75	1.83	1.67	1.6	1.18	0.00337	1.61
HCI-010, days in culture: 103	3.83	3.96	3.78	3.21	2.72	1.92	0.00125	3.51
HCI-011.E2, days in culture: 74	2.68	2.66	2.33	1.91	1.8	2.39	0.00131	2.55
HCI-023, days in culture: 111	1.18	1.25	1.15	1.13	0.75	0.349	-0.00131	1.06
HCI-023, days in culture: 128	1.67	1.44	1.83	1.63	0.769	0.338	-0.000598	1.65
HCI-025, days in culture: 172	2.78	1.47	2.47	1.38	1.47	0.608	-0.00396	2.94
HCI-025, days in culture: 209	1.76	1.67	2.01	1.27	1.15	1.26	-0.00298	1.83
HCI-025, days in culture: 218	1.65	2.13	1.88	1.42	1.18	1.58	-0.00137	1.71
HCI-027, days in culture: 176	2.03	1.26	2.15	1.13	1.04	0.17	0.0169	1.76
HCI-027, days in culture: 194	1.89	1.29	1.38	1.42	1.56	0.796	0.014	1.65
HCI-027, days in culture: 201	1.99	1.85	1.63	1.68	0.995	0.365	0.0102	2.09

HCI-011.E2
Conditions	CTG-3D luminescence at 96 h
12.5 pM	1.67
0.00025 µM	1.69
0.005 µM	1.54
0.1 µM	1.81
1 µM	1.6
10 µM	1.58
100 µM	0.00136
625 fM	1.85

C[C@H](NC(=O)CCC(F)(F)F)C(=O)N[C@@H]1C(=O)N(CCO)c2ncccc2-c2ccccc21 [crenigacestat]
CTG-3D luminescence at 96 h
Conditions	12.5 pM	0.00025 µM	0.005 µM	0.1 µM	1 µM	10 µM	100 µM	625 fM
HCI-008, days in culture: 228	1.8	1.66	1.56	1.47	1.73	1.7	1.65	1.9
HCI-008, days in culture: 244	1.23	1.65	1.55	1.79	1.38	1.57	1.38	1.79
HCI-010, days in culture: 52	2.36	2.09	2.19	2.54	2.37	2.23	2.04	2
HCI-010, days in culture: 65	1.61	1.63	1.79	1.64	1.79	1.6	1.45	1.67
HCI-010, days in culture: 103	3.59	3.73	3.34	3.15	3.09	2.87	2.58	2.85
HCI-011.E2, days in culture: 74	2.42	2.44	1.96	2.06	2.51	2.95	2.45	2.02
HCI-023, days in culture: 111	1.05	1.15	1.17	0.954	0.7	1.28	0.926	1.3
HCI-023, days in culture: 128	1.4	1.35	1.31	1.51	1.05	1.52	1.13	1.53
HCI-025, days in culture: 172	2.73	1.6	2.79	2.23	3.2	1.64	1.98	2.44
HCI-025, days in culture: 209	2.02	2.25	2.26	1.61	1.76	1.57	1.45	1.58
HCI-025, days in culture: 218	1.89	2.02	1.67	1.69	1.75	2.32	1.58	2.02
HCI-027, days in culture: 176	1.81	1.25	0.916	0.198	0.179	0.173	0.335	1.6
HCI-027, days in culture: 194	1.84	1.19	0.958	0.251	0.276	0.312	0.344	1.57
HCI-027, days in culture: 201	2.13	1.77	1.26	0.249	0.206	0.258	0.259	1.97

HCI-011.E2
Conditions	CTG-3D luminescence at 96 h
12.5 pM	1.52
0.00025 µM	2.05
0.005 µM	1.54
0.1 µM	1.98
1 µM	1.59
10 µM	1.95
100 µM	1.98
625 fM	1.91
